How the values were obtained:
[1] = tested on: platelet aggregation in vivo (bleeding time in mouse tail tips); test: In vivo bleeding time in mouse tail tips; design: species or system mice; details: oral, pretreatment time 1 h, Aspirin 100 mg/kg
Description: Wintergreen-derived gaultherin containing extracts were also shown to inhibit platelet aggregation in vivo. […] The gaultherin-containing extract prolonged mouse bleeding times assessed at 1, 3, and 6 hours after treatment. Therefore, gaultherin-containing extracts prevent platelet aggregation in vitro and in vivo. In vivo assay: The gaultherin-containing extract was mixed with vehicle (2% Tween 80/distilled water) and orally administered to 5 ICR […] (22+2 g) at the doses given in Table V. After 1, 3, or 6 hours of treatment, the mice were suspended in holders and 0.5 mm of the tip of each tail was transected and immersed in a test tube containing saline at 37° C. The bleeding time is defined as the time required for the bleeding to cease for a period of greater than 15 seconds. Prolongation of the bleeding time over that of control animals was then calculated. Aspirin was used as the standard to ensure that the assay was performing as expected.

[2] = Gastric irritation in fasted rats; format: in vivo, Wistar rats; details: oral gavage, overnight-fasted rats, 4 h after treatment, extract 5000 mg/kg; for Gastric irritation Total Score: total for three rats (0-4 each), aspirin 150 mg/kg (equal total salicylate)
Description: Wintergreen-derived, gaultherin-containing extract and aspirin were given by oral gavage to overnight-fasted Wistar rats (200+/−20 g). The 5000 mg/kg dose of wintergreen extract and the 150 mg/kg dose of aspirin used in the experiment contain equal total amounts of salicylate. Four hours after treatment, the stomach lining was harvested and scored for gastric irritation [Guth et al., Gastroenterology, 76: 88–93 (1979)]. A score of zero was given for no sign of hyperaemia (excess blood or engorgement with blood) or bleeding. A score of one was given when hyperaemia was evident. A score of two was given when some spot bleeding was observed. A score of three was assigned for any hyperaemia and spot bleeding and a score of four for hyperaemia and spot bleeding occurred over the entire stomach. The total aspirin score for three rats was nine as all three rats experienced some hyperaemia and spot bleeding. The total wintergreen-derived, gaultherin-containing extract score was two because only two of the three rats were noted to have some hyperaemia. Based on these responses, the gastric irritation caused by wintergreen extract was substantially less (approximately five times lower) than that caused by aspirin.

[3] = Rat hind paw inflammatory (edema and hyperalgesia) model, Freund's adjuvant; format: in vivo, Sprague-Dawley rats
Description: Wintergreen-derived gaultherin-containing extract was administered by per-oral gavage at human dose equivalents of 200 mg and 400 mg per day and Naproxen was administered at a dose of 440 mg per day. Male Sprague-Dawley rats (300–350 grams) were treated for 5 days by gavage. Inflammation (edema and hyperalgesia) was induced 3 days prior to treatment through intraplantar injection of Freund's adjuvant (containing 170 μg Mycobacterium butyricum). Edema was determined by physical measurements of paw thickness and ankle width. Pain tolerance (i.e., pain reduction) was mechanically assessed via digital Von Frey determinations using a series of measurements at 6 locations on the surface of a paw. [Ren et al., ILAR Journal, 40(3):1–12 (1999), Kayser et al., Pain, 28:99–107 (1987)] Measurement terminated at the point of paw withdrawal, auditable indication of discomfort, or animal shuddering. Measurements were performed on left and right paws.

Q: Which “Avg. Bleed Time, Exp. 2” value [1] does the source give for CC(=O)Oc1ccccc1C(=O)O [Aspirin, acetylsalicylic acid] here?
A: 114 s

Q: And the “Avg. Bleed Time, Exp. 1” value ([1]; W. Extract 5000 mg/kg)?
A: 120 s

Q: And the “Prolongation of bleeding time, Exp. 1” value ([1]; W. Extract 5000 mg/kg, over control animals)?
A: 100%

Q: What about the “Prolongation of bleeding time, Exp. 2” value ([1]; over control animals) of the same molecule?
A: 73%

Q: And the “Gastric irritation Total Score” value [2]?
A: 9

Q: What about the “Gastric irritation Total Score” value ([2]; listed as aspirin) of the same molecule?
A: nine

Q: What about the “Gastric irritation Response” value ([2]; aspirin 150 mg/kg) of the same molecule?
A: 100%

Q: What does the source list for COC(=O)c1ccccc1O[C@@H]1O[C@H](CO[C@@H]2OC[C@@H](O)[C@H](O)[C@H]2O)[C@@H](O)[C@H](O)[C@H]1O [Gaultherin, gaultherin]?
A: Edema reduction ([3]; 200 mg/day (human dose equivalent) for 5 days, per-oral gavage): 12.2%; Edema reduction ([3]; 400 mg/day (human dose equivalent) for 5 days, per-oral gavage): 16.9%; improvement in pain tolerance (digital Von Frey) ([3]; human dose equivalent of 200 mg per day, 5 days, gavage): 6.7%; improvement in pain tolerance (digital Von Frey) ([3]; human dose equivalent of 400 mg per day, 5 days, gavage): 9.9%

Q: With COc1ccc2cc([C@H](C)C(=O)O)ccc2c1 [Naproxen] as the molecule, how does the “anti-inflammatory and analgesic effect” value ([3]; 440 mg per day, 5 days, gavage) read?
A: predictable anti-inflammatory and analgesic effect

Q: What about the Edema reduction ([3]; 440 mg/day for 5 days, gavage) of the same molecule?
A: 28%

Reference: patent US7033618B2, “Methods of administering gaultherin-containing compositions” (Rutgers University, The State University of New Jersey, priority 1999, dated 2006)
